The target of assay [1] is T1, lipase enzyme (Thermomyces lanuginosus, UniProt O59952, N255R/T253R).
T1 construct: purchased Novozymes LIPEX 100 L
The assay is described as follows: Total hydrolysis of rapeseed oil in a wash process: effect of surfactants on lipase enzyme activity (free oleic acid by HPLC). The format is biochemical. The note with it: about 100 ppm by weight surfactant, about 0.2 g/litre lipase concentrate, pH about 9.6, about 50° C.; for effect of the surfactant on lipase activity in the washing liquor (in words): 2° fH, compared with blank and LES (Sample C); for lipase activity relative to the blank liquor (A), set at 100%: hardness 2° fH. On the procedure: (§1) The total hydrolysis of rapeseed oil in a wash process was tested with washing liquors that were always comprising the same concentration of a lipase enzyme concentrate. A blank test was performed without any added surfactant. This blank test served as the reference with which could be compared the other results obtained with the same washing liquor samples into which one of a number of different non-ionic surfactants were added.
In the experiments, the lipase concentrate was always present in a concentration of about 0.2 gram of the concentrate per litre of total liquor.
The washing tests were performed at a temperature of about 50° C. The water in the formulations was demineralised water obtained by reverse osmosis (RO).
Different washing liquors were prepared containing about 100 ppm by weight of a selected surfactant, to be compared with a blank liquor containing only the lipase enzyme concentrate and no surfactants.
(§2) For each liquor was tested the appearance of free oleic acid generated from the hydrolysis of a standard amount of rapeseed oil with which the liquor was brought in contact. Monitored by High Performance Liquid Chromatography (HPLC) was the quantitative release of free oleic acid (C18:1 fatty acid) in the washing liquor and/or present on the textile, as explained in the protocols that are described in detail in our copending patent application having the attorney docket reference PAT2549761 EP00 and filed on the same day as this application. Because oleic acid is the main fatty acid in the triglycerides of rapeseed oil, the generation of this acid as free fatty acid it is an excellent quantitative marker for the hydrolysis of rapeseed oil, in this context thus also for the activity of the lipase enzyme.
A series of tests were performed using washing liquors having a hardness of 2° fH. […] For each surfactant choice 2 duplicate samples were tested, except for Sample J (3 duplicates) and Sample K (only 1 sample tested). […] Also shown for each bar with a surfactant is an error bar showing the difference between the lowest and the highest of the duplicates.

In assay [2] the target is T1, lipase enzyme. As to the kind of experiment: Effect of surfactant concentration on lipase activity in the washing liquor. The assay is classed as biochemical. On the procedure: as §1, §2
Extra experiments were performed with 5EO-isoC13 surfactant.

T1 sequence (O59952 23-291 T253R/N255R): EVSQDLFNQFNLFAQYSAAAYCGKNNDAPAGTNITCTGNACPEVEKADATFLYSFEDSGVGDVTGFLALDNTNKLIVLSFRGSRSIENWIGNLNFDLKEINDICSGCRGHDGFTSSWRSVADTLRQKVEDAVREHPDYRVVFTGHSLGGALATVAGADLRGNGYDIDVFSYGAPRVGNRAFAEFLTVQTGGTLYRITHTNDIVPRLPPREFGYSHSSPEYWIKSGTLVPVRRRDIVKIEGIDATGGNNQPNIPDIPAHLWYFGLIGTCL

For the substance “C9-C11 fatty alcohol alkoxylated with an average ethoxylation degree of about 6 and an average propoxylation degree of about 4 [Sample O]”, the “effect of the surfactant on lipase activity in the washing liquor (in words)” value (from here on “effect of the surfactant”) on lipase enzyme [1] is “worse than the LES reference”.

For “Linear Alkyl Benzene Sulphonate [Sample B]”, the “lipase activity relative to the blank liquor (A), set at 100%” value on lipase enzyme [1] is recorded as 12%.

On to 7EO-isoC13 [F], for which the “effect of the surfactant” value at lipase enzyme [1] is reported as “not better than the conventional LES surfactant”.

Regarding C8-C10 APG-DP of 1.7 [Sample K], the “effect of the surfactant” value at lipase enzyme [1] was “much lower depressing effect”.

With C8-C16 APG-DP of 1.5 [Sample J], the “effect of the surfactant” value at lipase enzyme [1] was “much lower depressing effect”.

On to 9EO-isoC13 [G], for which, on lipase enzyme [1], the “effect of the surfactant” value was “not better than the conventional LES surfactant”.

On to 10EO-isoC13 [H], for which the “effect of the surfactant” value on lipase enzyme [1] is given as “not better than the conventional LES surfactant”.

As to 5EO-C13-C15 [M], the “effect of the surfactant” value at lipase enzyme [1] is on record as “relatively benign”.

As to Lauryl ether sulphate [Sample C], the “lipase activity relative to the blank liquor (A), set at 100%” value at lipase enzyme [1] is recorded as “about 40%”.

Turning to C12-C14 amine oxide [P], the “effect of the surfactant” value at lipase enzyme [1] was “significant boost”.

With “isotridecyl alcohol ethoxylated to an average degree of ethoxylation of about 3”, the “effect of the surfactant” value at lipase enzyme [1] is listed as “not better than the conventional LES surfactant”.

For the substance “C8-C10 alkyl polyglucoside (APG) with an average degree of polymerisation (DP) of 1.5”, the “effect of the surfactant” value at lipase enzyme [1] was “much lower depressing effect”.

Turning to 5EO-isoC13, at lipase enzyme [2], the “surfactant concentration at which the suppressing activity on lipase becomes noticeable” value turned out to be 10 ppm by weight and the “surfactant concentration until which the suppressing effect further grows” value was “about 100 ppm by weight”. Besides, the “suppressing effect when further increasing the surfactant presence” value at lipase enzyme [2] (from about 100 up to 250 ppm by weight surfactant) is given as “remains about the same”. Moreover, the “effect of the surfactant” value on lipase enzyme [1] is recorded as “not better than the conventional LES surfactant”.

Consider “a mixture of linear C13-C15 alcohol that has been ethoxylated to an average degree of about 3”, for which the “effect of the surfactant” value at lipase enzyme [1] is reported as “relatively benign”.

In the case of 7EO-C13-15 [N], the “effect of the surfactant” value at lipase enzyme [1] is “much larger depressing effect”.

The record behind these values is patent US20240316513A1, “METHOD AND APPARATUS FOR ON-SITE PREPARATION AND DOSING OF AN ENZYME-CONTAINING DETERGENT FORMULATION” (CHRISTEYNS, priority 2021, published 2024).
